These results are taken from publication PMC3615411 (Cancer research, 2008).

The test concerns the target E2F4 (Mus musculus, UniProt Q8R0K9). Put plainly: EMSA of E2F4 DNA binding with compound added to cell extract. It is filed as biochemical. Particulars: NIH-3T3 protein extract; 20 µM screen; STAT3 EMSA as negative control. A general note: In EMSA bound probe runs differently from free probe, usually more slowly.

E2F4, sequence (Q8R0K9 2-410): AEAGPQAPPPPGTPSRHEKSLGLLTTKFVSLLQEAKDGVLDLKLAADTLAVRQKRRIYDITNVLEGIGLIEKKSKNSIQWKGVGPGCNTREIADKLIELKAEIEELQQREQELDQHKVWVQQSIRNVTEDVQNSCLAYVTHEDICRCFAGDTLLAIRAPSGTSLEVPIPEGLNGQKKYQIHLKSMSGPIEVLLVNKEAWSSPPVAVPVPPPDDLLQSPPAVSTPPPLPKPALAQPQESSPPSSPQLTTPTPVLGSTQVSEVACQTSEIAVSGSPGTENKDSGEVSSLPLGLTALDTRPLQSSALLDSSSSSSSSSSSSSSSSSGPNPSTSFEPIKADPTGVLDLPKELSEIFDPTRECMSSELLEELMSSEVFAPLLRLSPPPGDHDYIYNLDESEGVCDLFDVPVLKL

As for `CCOc1ccc(C(Nc2ccccn2)c2ccc3ccc(C)nc3c2O)cc1C` (stereo not shown) [HLM006474], the “inhibition at 20 μM” value is recorded as “Incubation of these compounds with NIH-3T3 protein extracts identified ten compounds with potential E2F4-inhibitory activity”.
